Measured values taken from patent US20250302815A1, “PROTEIN TYROSINE PHOSPHATASE TARGETING LIGANDS” (CALICO LIFE SCIENCES LLC, priority 2021, published 2025).

How the values were obtained:
[1] = target: T1, PTPN2 (HiBIT-PTPN2 in 293T.109 cells) (Homo sapiens, UniProt P17706); experiment: HiBiT Degradation 293T.109 PTPN2 (Nano-Glo HiBiT Lytic Assay); type: cell-based; settings: 24.0 hours
T1 construct: expressed in transfected cells; host or cells: 293T.109 (293T WT from ATCC)
T1 sequence (P17706 1-415): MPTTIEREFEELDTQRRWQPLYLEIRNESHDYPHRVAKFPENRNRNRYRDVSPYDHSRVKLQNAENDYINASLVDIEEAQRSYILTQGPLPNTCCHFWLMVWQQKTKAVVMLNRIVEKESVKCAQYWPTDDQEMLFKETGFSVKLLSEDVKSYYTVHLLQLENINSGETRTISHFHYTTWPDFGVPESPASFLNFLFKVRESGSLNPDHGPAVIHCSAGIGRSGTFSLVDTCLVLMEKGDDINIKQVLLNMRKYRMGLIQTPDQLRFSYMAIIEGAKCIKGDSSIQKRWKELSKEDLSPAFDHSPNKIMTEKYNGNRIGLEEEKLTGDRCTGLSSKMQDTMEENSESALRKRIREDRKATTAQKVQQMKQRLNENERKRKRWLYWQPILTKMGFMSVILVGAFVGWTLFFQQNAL
How it was run: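 293T.109 cells with ectopic N-terminal HiBiT-tagged PTPN2 (5000/well) exposed to compounds for 24 h at 37 °C, 5% CO2; 11-point half-log titration from 10 μM top, duplicates. Remaining HiBiT-PTPN2 read as luminescence with Nano-Glo HiBiT lytic reagent, normalised to untreated cells (0%) and reagent-free wells.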

PTPN2 (B16F10.4 cells) = target: T2, PTPN2 (B16F10.4 cells) (Mus musculus, UniProt Q06180); experiment: HiBiT Degradation B16F10.4 PTPN2; type: cell-based; settings: 24.0 hours
T2 construct: HiBiT; host or cells: B16F10.4
T2 sequence (Q06180 1-406): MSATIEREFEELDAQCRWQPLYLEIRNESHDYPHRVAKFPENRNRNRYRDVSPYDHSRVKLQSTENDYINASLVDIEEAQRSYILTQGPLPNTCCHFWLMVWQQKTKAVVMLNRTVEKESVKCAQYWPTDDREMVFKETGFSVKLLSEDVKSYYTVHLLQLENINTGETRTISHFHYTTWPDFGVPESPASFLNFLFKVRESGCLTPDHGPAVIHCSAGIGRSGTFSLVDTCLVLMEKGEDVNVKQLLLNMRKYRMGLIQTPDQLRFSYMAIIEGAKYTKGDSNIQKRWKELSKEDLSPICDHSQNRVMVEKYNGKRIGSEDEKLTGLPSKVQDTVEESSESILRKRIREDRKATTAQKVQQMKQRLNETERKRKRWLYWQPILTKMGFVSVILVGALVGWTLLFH

| Compound | DC50 [1] [nM] | DC50 (PTPN2 (B16F10.4 cells)) [nM] |
| --- | --- | --- |
| CC1(C)C[C@@H](Nc2cccc(-c3sc(C(=O)O)c(OCC(=O)O)c3Cl)c2)CCN1S(=O)(=O)Cc1cccc(NC(=O)NCCCc2ccc3c4c(cccc24)C(=O)N3C2CCC(=O)NC2=O)c1 (stereo partly drawn) [Example 156, 3-(carboxymethoxy)-4-chloro-5-(3-(((4S)-1-((3-(3-(3-(1-(2,6-dioxopiperidin-3-yl)-2-oxo-1,2-dihydrobenzo[cd]indol-6-yl)propyl)ureido)benzyl)sulfonyl)-2,2-dimethylpiperidin-4-yl)amino)phenyl)thiophene-2-carboxylic acid] | < 50 | < 50 |
| Cn1nc(C2CCC(=O)NC2=O)c2ccc(CCC(=O)Nc3cccc(CS(=O)(=O)N4CCC(Nc5cccc(-c6sc(C(=O)O)c(OCC(=O)O)c6Cl)c5)CC4)c3)cc21 (stereo not shown) [Example 157, 3-(carboxymethoxy)-4-chloro-5-[3-[[1-[[3-[3-[3-(2,6-dioxo-3-piperidyl)-1-methyl-indazol-6-yl]propanoylamino]phenyl]methylsulfonyl]-4-piperidyl]amino]phenyl]thiophene-2-carboxylic acid] | 200 to 1000 | 200 to 1000 |
| CC1(C)C[C@@H](Nc2cccc(-c3sc(C(=O)O)c(OCC(=O)O)c3Cl)c2)CCN1S(=O)(=O)Cc1cc(NC(=O)N2CCC(c3ccc4c5c(cccc35)C(=O)N4C3CCC(=O)NC3=O)CC2)ccc1F (stereo partly drawn) [Example 161, 3-(carboxymethoxy)-4-chloro-5-[3-[[(4S)-1-[[5-[[4-[1-(2,6-dioxo-3-piperidyl)-2-oxo-benzo[cd]indol-6-yl]piperidine-1-carbonyl]amino]-2-fluoro-phenyl]methylsulfonyl]-2,2-dimethyl-4-piperidyl]amino]phenyl]thiophene-2-carboxylic acid] | 50 to 200 | < 50 |
| CC1(C)C[C@H](Nc2cccc(-c3sc(C(=O)O)c(OCC(=O)O)c3Cl)c2)CCN1S(=O)(=O)Cc1cc(NC(=O)N2CCC(c3ccc4c5c(cccc35)C(=O)N4C3CCC(=O)NC3=O)CC2)ccc1F (stereo partly shown) [Example 162] | 200 to 1000 | < 50 |
| CC1(C)C[C@@H](Nc2cccc(-c3sc(C(=O)O)c(OCC(=O)O)c3Cl)c2)CCN1S(=O)(=O)Cc1cccc(NC(=O)N2CCCN(c3ccc4c5c(cccc35)C(=O)N4C3CCC(=O)NC3=O)CC2)c1 (stereo partly drawn) [Example 163, 3-(carboxymethoxy)-4-chloro-5-(3-(((4S)-1-((3-(4-(1-(2,6-dioxopiperidin-3-yl)-2-oxo-1,2-dihydrobenzo[cd]indol-6-yl)-1,4-diazepane-1-carboxamido)benzyl)sulfonyl)-2,2-dimethylpiperidin-4-yl)amino)phenyl)thiophene-2-carboxylic acid] | 50 to 200 | 50 to 200 |
| CC1(C)C[C@@H](Nc2cccc(-c3sc(C(=O)O)c(OCC(=O)O)c3Cl)c2)CCN1S(=O)(=O)Cc1cccc(NC(=O)[C@H]2CC[C@H](c3ccc4c5c(cccc53)C(=O)N4C3CCC(=O)NC3=O)CC2)c1 (stereo partly drawn) [Example 165, 3-(carboxymethoxy)-4-chloro-5-(3-(((4S)-1-((3-((1r,4S)-4-(1-(2,6-dioxopiperidin-3-yl)-2-oxo-1,2-dihydrobenzo[cd]indol-6-yl)cyclohexane-1-carboxamido)benzyl)sulfonyl)-2,2-dimethylpiperidin-4-yl)amino)phenyl)thiophene-2-carboxylic acid] | < 50 | < 50 |
| CC1(C)C[C@@H](Nc2cccc(-c3sc(C(=O)O)c(OCC(=O)O)c3Cl)c2)CCN1S(=O)(=O)Cc1cccc(NC(=O)[C@H]2CC[C@@H](c3ccc4c5c(cccc53)C(=O)N4C3CCC(=O)NC3=O)CC2)c1 (stereo partly drawn) [Example 166, 3-(carboxymethoxy)-4-chloro-5-(3-(((4S)-1-((3-((1s,4R)-4-(1-(2,6-dioxopiperidin-3-yl)-2-oxo-1,2-dihydrobenzo[cd]indol-6-yl)cyclohexane-1-carboxamido)benzyl)sulfonyl)-2,2-dimethylpiperidin-4-yl)amino)phenyl)thiophene-2-carboxylic acid] | 50 to 200 | 50 to 200 |

Continued, values first:

| DC50 [1] [nM] | DC50 (PTPN2 (B16F10.4 cells)) [nM] | Compound |
| --- | --- | --- |
| 50 to 200 | 50 to 200 | CC1(C)C[C@@H](Nc2cccc(-c3sc(C(=O)O)c(OCC(=O)O)c3Cl)c2)CCN1S(=O)(=O)Cc1cccc(NC(=O)N2CCC(c3ccc4c(c3)n(C3CC3)c(=O)n4C3CCC(=O)NC3=O)CC2)c1 (stereo partly drawn) [Example 154, 3-(carboxymethoxy)-4-chloro-5-[3-[[(4S)-1-[[3-[[4-[3-cyclopropyl-1-(2,6-dioxo-3-piperidyl)-2-oxo-benzimidazol-S-yl]piperidine-1-carbonyl]amino]phenyl]methylsulfonyl]-2,2-dimethyl-4-piperidyl]amino]phenyl]thiophene-2-carboxylic acid] |
| 50 to 200 | 50 to 200 | CC1(C)C[C@@H](Nc2cccc(-c3sc(C(=O)O)c(OCC(=O)O)c3Cl)c2)CCN1S(=O)(=O)Cc1cccc(NC(=O)N2CCC(c3ccc4c(c3)n(CC(F)(F)F)c(=O)n4C3CCC(=O)NC3=O)CC2)c1 (stereo partly drawn) [Example 155, 3-(carboxymethoxy)-4-chloro-5-[3-[[(4S)-1-[[3-[[4-[1-(2,6-dioxo-3-piperidyl)-2-oxo-3-(2,2,2-trifluoroethyl)benzimidazol-5-yl]piperidine-1-carbonyl]amino]phenyl]-methylsulfonyl]-2,2-dimethyl-4-piperidyl]amino]phenyl]thiophene-2-carboxylic acid] |
| 50 to 200 | < 50 | CC1(C)C[C@@H](Nc2cccc(-c3sc(C(=O)O)c(OCC(=O)O)c3Cl)c2)CCN1S(=O)(=O)Cc1cccc(NC(=O)N2CCC(Cc3ccc4c5c(cccc35)C(=O)N4C3CCC(=O)NC3=O)CC2)c1 (stereo partly drawn) [Example 158, 3-(carboxymethoxy)-4-chloro-5-(3-(((4S)-1-((3-(4-((1-(2,6-dioxopiperidin-3-yl)-2-oxo-1,2-dihydrobenzo[cd]indol-6-yl)methyl)piperidine-1-carboxamido)benzyl)sulfonyl)-2,2-dimethylpiperidin-4-yl)amino)phenyl)thiophene-2-carboxylic acid] |
| 200 to 1000 | 200 to 1000 | CC1(C)C[C@@H](Nc2cccc(-c3sc(C(=O)O)c(OCC(=O)O)c3Cl)c2)CCN1S(=O)(=O)Cc1cccc(NC(=O)N2CCC(c3ccc4c(c3)n(C3CCOCC3)c(=O)n4C3CCC(=O)NC3=O)CC2)c1 (stereo partly drawn) [Example 159, 3-(carboxymethoxy)-4-chloro-5-(3-(((4S)-1-((3-(4-(1-(2,6-dioxopiperidin-3-yl)-2-oxo-3-(tetrahydro-2H-pyran-4-yl)-2,3-dihydro-1H-benzo[d]imidazol-5-yl)piperidine-1-carboxamido)benzyl)sulfonyl)-2,2-dimethylpiperidin-4-yl)amino)phenyl)thiophene-2-carboxylic acid] |
| 50 to 200 | 50 to 200 | COCCn1c(=O)n(C2CCC(=O)NC2=O)c2ccc(C3CCN(C(=O)Nc4cccc(CS(=O)(=O)N5CC[C@H](Nc6cccc(-c7sc(C(=O)O)c(OCC(=O)O)c7Cl)c6)CC5(C)C)c4)CC3)cc21 (stereo partly drawn) [Example 160, 3-(carboxymethoxy)-4-chloro-5-(3-(((4S)-1-((3-(4-(1-(2,6-dioxopiperidin-3-yl)-3-(2-methoxyethyl)-2-oxo-2,3-dihydro-1H-benzo[d]imidazol-5-yl)piperidine-1-carboxamido)benzyl)sulfonyl)-2,2-dimethylpiperidin-4-yl)amino)phenyl)thiophene-2-carboxylic acid] |
| 50 to 200 | < 50 | Cn1c(=O)n(C2CCC(=O)NC2=O)c2ccc([C@H]3CCN(C(=O)Nc4cccc(CS(=O)(=O)N5CC[C@H](Nc6cccc(-c7sc(C(=O)O)c(OCC(=O)O)c7Cl)c6)CC5(C)C)c4)CC3(F)F)cc21 (stereo partly drawn) [Example 168, 3-(carboxymethoxy)-4-chloro-5-(3-(((4S)-1-((3-((4R)-4-(1-(2,6-dioxopiperidin-3-yl)-3-methyl-2-oxo-2,3-dihydro-1H-benzo[d]imidazol-5-yl)-3,3-difluoropiperidine-1-carboxamido)benzyl)sulfonyl)-2,2-dimethylpiperidin-4-yl)amino)phenyl)thiophene-2-carboxylic acid] |
| < 50 | < 50 | Cn1c(=O)n(C2CCC(=O)NC2=O)c2ccc([C@@H]3CCN(C(=O)Nc4cccc(CS(=O)(=O)N5CC[C@H](Nc6cccc(-c7sc(C(=O)O)c(OCC(=O)O)c7Cl)c6)CC5(C)C)c4)CC3(F)F)cc21 (stereo partly drawn) [Example 169, 3-(carboxymethoxy)-4-chloro-5-(3-(((4S)-1-((3-((4S)-4-(1-(2,6-dioxopiperidin-3-yl)-3-methyl-2-oxo-2,3-dihydro-1H-benzo[d]imidazol-5-yl)-3,3-difluoropiperidine-1-carboxamido)benzyl)sulfonyl)-2,2-dimethylpiperidin-4-yl)amino)phenyl)thiophene-2-carboxylic acid] |
